Laboratory results from patent publication US20220016080A1, “COMPOUNDS THAT SELECTIVELY AND EFFECTIVELY INHIBIT HAKAI-MEDIATED UBIQUITINATION, AS ANTI-CANCER DRUGS” (FUNDACIÓN PROFESOR NOVOA SANTOS, priority 2018, published 2022).

Key:
HT-29 cells = experiment: Immunofluorescence of E-cadherin, HT-29; assay type: cell-based; details: 48 h
Experimental: (§1) For western blot analysis, cells were treated with the indicated inhibitors for 48 h and the whole cell extracts were obtained as described previously. Twenty micrograms of lysates were resolved on a 10% polyacrilamide SDS-PAGE followed by western blot analysis performed as previously described. For immunofluorescence assays cells were grown for 24 h on glass coverslips and treated with the indicated inhibitors for 48 h. Cells were fixed with 4% PFA for 15 min, permeabilized with 0.5% […] and incubated with E-cadherin antibody for 2 h. Coverslips were incubated with fluorescein-tagged secondary antibody (Dakopatts, Sweden) for […]. Finally coverslips were mounted with ProLong Gold antifade reagent (LifeTech, UK) and images were taken in epifluorescence microscope (Olympus) using 40× objective.

Hakai-MDCK cells [1] = experiment: E-cadherin protein levels, Hakai-MDCK; assay type: cell-based; details: mesenchymal Hakai-MDCK cells, no basal E-cadherin
Experimental: as §1

LoVo cells = experiment: Immunofluorescence of E-cadherin, LoVo; assay type: cell-based; details: 48 h
Experimental: as §1

Hakai-MDCK cells [2] = experiment: Soft agar-colony formation assay, Hakai-MDCK; assay type: cell-based; details: 21 days
Experimental: Soft agar-colony formation assay was performed on 12-well plates in triplicates at a density of 5×10^3 MDCK and MDCK-Hakai cells/well, or 12×10^3 HT29 cells/well. Cells were seeded in medium with 0.5% low-melting agarose over a layer with 0.75% low-melting agarose (Lonza Rockland, Me., USA). Cells were treated with the indicated inhibitors and DMSO was used as vehicle. Treatment was refreshed every 3 days and, after 21 days for MDCK and MDCK-Hakai cells or 28 days for HT29 cells, number of colonies were quantified. Quantification of five randomly-selected fields of each condition was photographed with a Nikon Eclipse-TI microscope (objective 4×). Experiments were conducted with three triplicates and were repeated three times. Data are represented as mean±SD.

Hakai-MDCK cells [3] = experiment: BrdU proliferation assay, Hakai-MDCK; assay type: cell-based; details: 48 h
Experimental: (§2) For BrdU assays, 1×10^4 of indicated cells were plated per well into a 96-well plate. After 24 h, cells were treated with the indicated inhibitors for 48 h. Three independent experiments were plated with six replicates per each condition. Cells were treated with […] BrdU for 2 h. BrdU incorporation into newly synthesized DNA was measured using a cell proliferation colorimetric immunoassay kit according to the manufacturer's instructions (Roche, Switzerland). Results are expressed as mean±S.D. Results are represented as percentage of positive cells (mean±S.D) of three independent experiments.

[4] = system: Hakai-MDCK xenograft tumours; experiment: Tumour xenograft model (Hakai-MDCK cells in nude mice); assay type: in vivo, athymic nu/nu mice
Experimental: Xenografts experiments were performed in Experimental Surgery Unit—Technological Training Center from INIBIC in compliance with the European Community Law (86/609/EEC) and the Spanish law (R.D. 53/2013). The experiment was approved by the Ethics Committee for Animal Experimentation of Xerencia de Xestion Integrada da Coruna (XXIAC). Mice were in a 12/12 hours light/dark cycle with water and food available ad libitum. Six weeks old athymic nu/nu mice were randomly distributed in groups. One million of MDCK cells, resuspended in DMEM without serum and antibiotic, were subcutaneously inoculated in both flanks in two groups of 3 animals. The same number of Hakai-MDCK cells were injected in two groups of 4 animals. Twenty days after inoculation tumours in Hakai-MDCK were palpable. Then, half of the animals were treated with Hakin-1 (5 mg/kg) and the other half with the same concentration of DMSO every 3 days. Tumour outgrowth was monitored twice a week taking measurements of tumour length (L) and width (W) with an electronic calipter. Tumour volume was calculated as pLW2/6. Forty days after inoculation, animals were sacrificed. Tumours, lungs, kidneys and livers were collected and fixed in 4% PFA and embedded in paraffin blocks for histology and/or immunohistochemistry (IHC) analyses.
Tumours and tissues were deparaffinised, rehydrated and stained with haematoxylin and eosin (H&E) as previously described. Tumour sections (4 μm) were also deparaffinised and hydrated for immunohistochemistry. Antigen retrieval was carried by heating the samples (2100 Retriever; PickCell Laboratories) in citrate buffer (Dako REAL, Denmark) or in EDTA buffer. Then, endogenous peroxidase activity was blocked with peroxidase blocking (DakoCytomation, Denmark). Samples were blocked and permeabilized with 0.2% BSA and 0.1% Tx-100 for 1 hour and incubated with the indicated primary antibodies overnight at 4° C. in a wet chamber. Slides were incubated for 1 hour at room temperature with the secondary antibody and detection was carried our using DAB (DakoReal Envision kit) according to manufacturer instructions. Finally, nuclei were counterstained with Gill's Hematoxylin and mounted with DePeX. Pictures were taken with an Olympus microscope. Quantification of images was performed taken 5 photographs of each animal with Image J programme and the represented results are shown as mean±SEM. The number of mitosis was counted in sections stained with H&E. In this case, ten pictures of each tumour were taken with an Olympus BX50 microscope (objective 40×) and the number of mitosis was counted manually. Results are represented as mean±SEM and a representative photograph is shown for each condition. […]
Tissue sections from tumours were deparaffinised and rehydrated using standard protocols. The slides were rinsed twice with PBS and treated with citrate buffer buffer (Dako REAL, Denmark) in microwave at 350 W for 5 min. The tissue sections were then analysed with an in situ Cell Death Detection Kit, Fluorescein (Roche) following the manufacturer's instructions. Then, slides were incubated with Hoechst for 5 min in darkness. The reaction was visualized under an epifluorescence Olympus microscope using 20× objective. Five representative pictures of each section were taken. The percentage of positive cells was calculated and results are represented as mean±SEM.

[5] = system: non-transformed epithelial MDCK cells; experiment: BrdU proliferation assay, MDCK; assay type: cell-based; details: 48 h
Experimental: as §2

[6] = system: HT-29 colon tumour cell line; experiment: MTT cell viability assay, HT29; assay type: cell-based; details: 72 h, analogues at 50-500 μM
Experimental: (§3) For cytotoxicity assays, 1×10^4 cells were seeded per well into a 96-well plate. After 24 h cells were treated with the indicated inhibitors for 72 h and a MTT colorimetric cell viability assay was performed following manufacturer's instructions (Sigma Aldrich, St Louis, Mo.). Absorbance was measured at 570 and 630 nm using a Multiskan Plus Reader (Nanoquant Infinite M200 Tecan Trading AG, Switzerland). Dose-response curves were designed with Graph Pad Prism Software and the half-maximal inhibitory concentration (IC50) values were calculated. Represented data are the mean±SEM of at least three independent experiments with six replicates per condition.

[7] = system: prostate cancer PC-3 cells; experiment: BrdU proliferation assay, PC-3; assay type: cell-based, human; details: 48 h
Experimental: as §2

[8] = system: LoVo colon tumour cell line; experiment: MTT cell viability assay, LoVo; assay type: cell-based; details: 72 h
Experimental: as §3

[9] = Hakai-MDCK xenograft tumours, 5 mg/kg every 3 days
[10] = Hakai-MDCK xenograft, 5 mg/kg every 3 days

O=C(O)c1ccc(-n2nnnc2SCC(=O)c2ccc([N+](=O)[O-])cc2)cc1 [Hakin-1, 4-(5-{[2-(4-nitrophenyl)-2-oxoethyl]thiol}-1H-tetrazol-1-yl)benzoic acid]
E-cadherin levels at cell-cell contacts (immunofluorescence) (HT-29 cells): significant increase E-cadherin levels at cell-cell contacts
E-cadherin protein levels (Hakai-MDCK cells [1]): no recovery was detected
E-cadherin levels at cell-cell contacts (immunofluorescence) (LoVo cells): significant increase E-cadherin levels at cell-cell contacts
colony formation (soft agar) (Hakai-MDCK cells [2]): robust inhibition of colony formation
cell proliferation (BrdU) (Hakai-MDCK cells [3]): suppress proliferation
micrometastasis detected in lung (quantitative PCR of HA-tagged Hakai DNA) ([4]; Hakai-MDCK xenograft mice, compared to DMSO treated mice): significant reduction of micrometastasis
Cortactin expression (immunohistochemistry) ([4]; Hakai-MDCK xenograft tumours): recovered
E-cadherin (immunohistochemistry) ([4]; Hakai-MDCK xenograft tumours, in presence or absence of treatment): not detected
apoptosis (TUNEL assay) [4, 9]: no effect on apoptosis was detected
mitotic-index (H&E) [4, 9]: markedly reduce
number of Ki67-positive cells (immunohistochemistry) [4, 9]: markedly reduce
number of blood vessels (CD31 angiogenic marker) ([4]; Hakai-MDCK xenograft tumours, vs non-treated tumours): strong reduction on the number of blood vessels
xenograft tumour growth ([4]; Hakai-MDCK xenograft, nude mice, 5 mg/kg every 3 days, vs DMSO): potent effect on inhibiting xenograft tumour growth
tumour-cell infiltration in blood vessels (H&E) [4, 10]: no infiltration was detected
xenograft tumour cell morphology (H&E) [4, 10]: induction of tumour differentiation and an increase in cytoplasm size
tissue damage (H&E, morphological structure) ([4]; lung and kidney tissues of treated nude mice, 5 mg/kg): no damage was observed
N-cadherin expression (immunohistochemistry) ([4]; tumour xenografts, compared to DMSO treated mice): strongly reduced
cell proliferation (BrdU) [5]: no effect was detected
cytotoxicity effect (cell viability, MTT) [6]: important inhibitory response
cell proliferation (BrdU) [7]: inhibits cell proliferation
cytotoxicity effect (cell viability, MTT) [8]: important inhibitory response
